Assay results published in patent publication US12522623B2, “Small molecule STAT protein degraders” (THE REGENTS OF THE UNIVERSITY OF MICHIGAN, priority 2020, dated 2026).

How the values were obtained:
Format in all cases: cell-based
STAT3 = molecular target: T1, STAT3 (Homo sapiens, UniProt P40763); experiment: Fluorescent immunoblotting of STAT3 protein in MOLM-16 cells (estimated DC50); conditions: MOLM-16, 4 h
T1 construct: endogenous in cells; host or cells: MOLM-16 (acute leukemia cells)
Protocol: (§1) In vitro cultured cells or xenograft tumors were lysed 1×Cell Lysis Buffer (Cell Signaling Technology, #9803), resolved by SDS-PAGE NuPAGE gel (Thermo Fisher Scientific), and transferred to a PVDF membrane (Bio Rad). For chemiluminescence immunoblotting, membranes were blocked for 1 h using 5% Blotting-Grade Blocker (#1706404, Bio Rad) in 1×Tris-buffered saline with Tween 20 (TBST, Pierce). Antibodies used were: rabbit mAbs for STAT3 (Cell Signaling Technology, #4368, #12640) and p-STAT3 (Y705) (Cell Signaling Technology, #9245, #52075). HRP conjugated goat anti-rabbit IgG (H+L) (#A27036) secondary antibodies was from Thermo Fisher Scientific. GAPDH (Santa Cruz Technology, sc-47724HRP) and actin (Santa Cruz Technology, sc-8432HRP, sc-47778HRP) were loading controls. For fluorescent immunoblotting, membranes were blocked using Odyssey TBS Blocker Buffer (LI-COR). IRDye 680RD and 800CW Dye-labeled secondary antibodies (LI-COR) were used. The washed membranes were scanned using Odyssey CLx imager (LI-COR). The intensity of Western blot signaling was quantitated using the Odyssey software or Image Studio V5.2 (LI-COR).

STAT1 = molecular target: T2, STAT1 (Homo sapiens, UniProt P42224); experiment: Fluorescent immunoblotting of STAT1 protein in MOLM-16 cells (estimated DC50); conditions: MOLM-16, 4 h
T2 construct: endogenous in cells; host or cells: MOLM-16 (acute leukemia cells)
T2 sequence (P42224 1-750): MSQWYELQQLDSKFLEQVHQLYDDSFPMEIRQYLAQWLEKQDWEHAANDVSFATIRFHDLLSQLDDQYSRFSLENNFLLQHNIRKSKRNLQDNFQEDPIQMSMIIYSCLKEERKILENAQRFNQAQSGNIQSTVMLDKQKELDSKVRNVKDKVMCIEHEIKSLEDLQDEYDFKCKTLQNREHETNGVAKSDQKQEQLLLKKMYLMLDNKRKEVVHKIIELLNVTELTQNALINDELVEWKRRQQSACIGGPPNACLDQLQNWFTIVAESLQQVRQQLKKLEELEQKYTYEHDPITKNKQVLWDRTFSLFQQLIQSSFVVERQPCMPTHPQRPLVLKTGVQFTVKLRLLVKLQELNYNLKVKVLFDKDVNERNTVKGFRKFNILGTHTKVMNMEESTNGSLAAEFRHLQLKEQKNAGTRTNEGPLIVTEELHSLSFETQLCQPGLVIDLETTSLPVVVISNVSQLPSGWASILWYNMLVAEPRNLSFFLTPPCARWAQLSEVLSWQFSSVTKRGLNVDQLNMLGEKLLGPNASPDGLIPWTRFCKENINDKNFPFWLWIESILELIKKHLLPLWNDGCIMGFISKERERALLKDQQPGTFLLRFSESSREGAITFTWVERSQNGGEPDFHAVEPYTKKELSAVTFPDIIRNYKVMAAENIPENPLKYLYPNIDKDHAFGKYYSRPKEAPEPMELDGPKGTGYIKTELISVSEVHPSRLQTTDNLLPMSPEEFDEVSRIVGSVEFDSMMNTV
Protocol: as §1

MOLM-16 cells = experiment: Cell growth inhibition, 4-day proliferation assay (CellTiter-Glo); conditions: MOLM16, 96 h; MOLM-16, 4 days
Protocol: The effect of representative Compounds of the Disclosure on cell viability was determined in a 4-day proliferation assay. Cells were maintained in the appropriate culture medium at 37° C. and an atmosphere of 5% CO2. All the cell lines were used within three months of thawing fresh vials. Cells were seeded in 384-well white plates (Corning Costar) at a density of 2,000 cells/well in 25 μl of culture medium. Compounds were serially diluted in the appropriate medium, and 25 μl of the diluted compounds were added to the cells. After the addition of compounds, the cells were incubated at 37° C. in an atmosphere of 5% CO2 for 4 days. Cell viability was determined using the CellTiter-Glo® Luminescent Cell Viability Assay Kit (Promega, Madison, WI) according to the manufacturers' instructions. Essentially, 50 μl of CellTiter-Glo® Reagent was added to each well, and then the plates were incubated at room temperature for 20 minutes. The luminescent signal was measured using a Tecan multimode microplate reader (Tecan, Morrisville, NC). The readings were normalized to the DMSO-treated cells and the IC50 was calculated by nonlinear regression (four parameters sigmoid fitted with variable slope, least squares fit, and no constraint) analysis using the GraphPad Prism software.

T1 sequence (P40763 whole entry): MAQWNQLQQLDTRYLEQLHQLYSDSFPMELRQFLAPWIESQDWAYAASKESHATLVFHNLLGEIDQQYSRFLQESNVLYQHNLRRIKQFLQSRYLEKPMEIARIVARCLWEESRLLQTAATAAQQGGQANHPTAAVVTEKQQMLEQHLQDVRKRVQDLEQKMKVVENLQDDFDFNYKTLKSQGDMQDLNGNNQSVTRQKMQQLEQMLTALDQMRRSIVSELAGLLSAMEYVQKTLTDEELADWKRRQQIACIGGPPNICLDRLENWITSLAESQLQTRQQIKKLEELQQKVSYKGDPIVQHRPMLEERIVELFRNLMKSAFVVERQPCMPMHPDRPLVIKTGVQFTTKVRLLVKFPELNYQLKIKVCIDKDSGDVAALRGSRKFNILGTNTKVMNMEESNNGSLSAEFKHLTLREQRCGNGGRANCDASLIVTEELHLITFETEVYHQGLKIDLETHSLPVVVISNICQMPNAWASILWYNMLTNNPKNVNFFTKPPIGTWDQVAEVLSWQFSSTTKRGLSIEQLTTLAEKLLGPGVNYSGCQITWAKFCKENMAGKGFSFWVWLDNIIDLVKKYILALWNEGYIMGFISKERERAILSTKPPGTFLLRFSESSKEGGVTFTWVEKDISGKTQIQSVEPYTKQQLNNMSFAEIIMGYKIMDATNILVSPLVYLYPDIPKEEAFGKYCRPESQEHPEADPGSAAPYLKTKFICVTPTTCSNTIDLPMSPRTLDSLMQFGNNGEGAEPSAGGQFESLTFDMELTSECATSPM

Row | SMILES | DC50 (STAT3) | DC50 (STAT1) | IC50 (MOLM-16 cells)
1 | CCN1CC[C@H]2CC[C@@H](C(=O)N[C@@H](CCn3ccnc3N)C(=O)N[C@@H](Cc3ccc(C(C)(C)C)cc3)C(=O)N3CCC(CCC#Cc4cccc5c4CN(C4CCC(=O)NC4=O)C5=O)CC3)N2C(=O)[C@@H](NC(=O)c2cc3cc(C(F)(F)P(=O)(O)O)ccc3s2)C1 (stereo partly drawn) [Cpd. No. 22, ((2-(((5S,8S,10aR)-8-(((2S)-4-(2-amino-1H-imidazol-1-yl)-1-(((2S)-3-(4-(tert-butyl)phenyl)-1-(4-(4-(2-(2,6-dioxopiperidin-3-yl)-1-oxoisoindolin-4-yl)but-3-yn-1-yl)piperidin-1-yl)-1-oxopropan-2-yl)amino)-1-oxobutan-2-yl)carbamoyl)-3-ethyl-6-oxodecahydropyrrolo[1,2-a][1,5]diazocin-5-yl)carbamoyl)benzo[b]thiophen-5-yl)difluoromethyl)phosphonic acid] | > 1 µM | > 1 µM | 
2 | CCN1CC[C@H]2CC[C@@H](C(=O)N[C@@H](CCn3ccnc3[N+](=O)[O-])C(=O)N[C@@H](Cc3ccc(C(C)(C)C)cc3)C(=O)N3CCC(CCC#Cc4cccc5c4CN(C4CCC(=O)NC4=O)C5=O)CC3)N2C(=O)[C@@H](NC(=O)c2cc3cc(C(F)(F)P(=O)(O)O)ccc3s2)C1 (stereo partly drawn) [Cpd. No. 21, ((2-(((5S,8S,10aR)-8-(((2S)-1-(((2S)-3-(4-(tert-butyl)phenyl)-1-(4-(4-(2-(2,6-dioxopiperidin-3-yl)-1-oxoisoindolin-4-yl)but-3-yn-1-yl)piperidin-1-yl)-1-oxopropan-2-yl)amino)-4-(2-nitro-1H-imidazol-1-yl)-1-oxobutan-2-yl)carbamoyl)-3-ethyl-6-oxodecahydropyrrolo[1,2-a][1,5]diazocin-5-yl)carbamoyl)benzo[b]thiophen-5-yl)difluoromethyl)phosphonic acid] | > 1 µM | > 1 µM | 
3 | CCN1CC[C@H]2CC[C@@H](C(=O)N[C@@H](CCn3ccnc3)C(=O)N[C@@H](Cc3ccc(C(C)(C)C)cc3)C(=O)N3CCC(CCC#Cc4cccc5c4CN(C4CCC(=O)NC4=O)C5=O)CC3)N2C(=O)[C@@H](NC(=O)c2cc3cc(C(F)(F)P(=O)(O)O)ccc3s2)C1 (stereo partly drawn) [Cpd. No. 19] | 0.25 µM | > 1 µM | 
4 | CCN1CC[C@H]2CC[C@@H](C(=O)N[C@@H](CCS(C)(=O)=O)C(=O)N[C@@H](Cc3ccc(C(C)(C)C)cc3)C(=O)N3CCC(CCC#Cc4cccc5c4CN(C4CCC(=O)NC4=O)C5=O)CC3)N2C(=O)[C@@H](NC(=O)c2cc3cc(C(F)(F)P(=O)(O)O)ccc3s2)C1 (stereo partly drawn) [Cpd. No. 18, ((2-(((5S,8S,10aR)-8-(((2S)-1-(((2S)-3-(4-(tert-butyl)phenyl)-1-(4-(4-(2-(2,6-dioxopiperidin-3-yl)-1-oxoisoindolin-4-yl)but-3-yn-1-yl)piperidin-1-yl)-1-oxopropan-2-yl)amino)-4-(methylsulfonyl)-1-oxobutan-2-yl)carbamoyl)-3-ethyl-6-oxodecahydropyrrolo[1,2-a][1,5]diazocin-5-yl)carbamoyl)benzo[b]thiophen-5-yl)difluoromethyl)phosphonic acid] | < 0.25 µM | > 1 µM | 
5 | NC(=O)CC[C@H](NC(=O)[C@@H]1CC[C@@H]2CCN(C(=O)CCCCCC#Cc3cccc4c3CN(C3CCC(=O)NC3=O)C4=O)C[C@H](NC(=O)c3cc4cc(C(F)(F)P(=O)(O)O)ccc4s3)C(=O)N21)c1ncc(Cc2ccccc2)s1 (stereo partly drawn) [Cpd. No. 5, ((2-(((5S,8S,10aR)-8-(((S)-4-amino-1-(5-benzylthiazol-2-yl)-4-oxobutyl)carbamoyl)-3-(8-(2-(2,6-dioxopiperidin-3-yl)-1-oxoisoindolin-4-yl)oct-7-ynoyl)-6-oxodecahydropyrrolo[1,2-a][1,5]diazocin-5-yl)carbamoyl)benzo[b]thiophen-5-yl)difluoromethyl)phosphonic acid] | 0.1 µM |  | 0.049 µM
6 | NC(=O)CC[C@H](NC(=O)[C@@H]1CC[C@@H]2CCN(C(=O)CCCCCC#Cc3cccc4c3CN(C3CCC(=O)NC3=O)C4=O)C[C@H](NC(=O)c3cc4cc(C(F)(F)P(=O)(O)O)ccc4s3)C(=O)N21)c1nc2c(s1)Cc1ccccc1-2 (stereo partly drawn) [Cpd. No. 6, ((2-(((5S,8S,10aR)-8-(((S)-4-amino-1-(8H-indeno[1,2-d]thiazol-2-yl)-4-oxobutyl)carbamoyl)-3-(8-(2-(2,6-dioxopiperidin-3-yl)-1-oxoisoindolin-4-yl)oct-7-ynoyl)-6-oxodecahydropyrrolo[1,2-a][1,5]diazocin-5-yl)carbamoyl)benzo[b]thiophen-5-yl)difluoromethyl)phosphonic acid] | 0.1 µM |  | 0.064 µM
7 | NC(=O)CC[C@H](NC(=O)[C@@H]1CC[C@@H]2CCN(C(=O)CCCCCC#Cc3cccc4c3CN(C3CCC(=O)NC3=O)C4=O)C[C@H](NC(=O)c3cc4cc(C(F)(F)P(=O)(O)O)ccc4s3)C(=O)N21)c1ncc(-c2ccc(F)cc2)s1 (stereo partly drawn) [Cpd. No. 9, ((2-(((5S,8S,10aR)-8-(((S)-4-amino-1-(5-(4-fluorophenyl)thiazol-2-yl)-4-oxobutyl)carbamoyl)-3-(8-(2-(2,6-dioxopiperidin-3-yl)-1-oxoisoindolin-4-yl)oct-7-ynoyl)-6-oxodecahydropyrrolo[1,2-a][1,5]diazocin-5-yl)carbamoyl)benzo[b]thiophen-5-yl)difluoromethyl)phosphonic acid] | 0.05 µM |  | 0.06 µM
8 | CCN1CC[C@H]2CC[C@@H](C(=O)N[C@@H](CCS(N)(=O)=O)C(=O)N[C@@H](Cc3ccc(C(C)(C)C)cc3)C(=O)N3CCC(CCC#Cc4cccc5c4CN(C4CCC(=O)NC4=O)C5=O)CC3)N2C(=O)[C@@H](NC(=O)c2cc3cc(C(F)(F)P(=O)(O)O)ccc3s2)C1 (stereo partly drawn) [Cpd. No. 20, ((2-(((5S,8S,10aR)-8-(((2S)-1-(((2S)-3-(4-(tert-butyl)phenyl)-1-(4-(4-(2-(2,6-dioxopiperidin-3-yl)-1-oxoisoindolin-4-yl)but-3-yn-1-yl)piperidin-1-yl)-1-oxopropan-2-yl)amino)-1-oxo-4-sulfamoylbutan-2-yl)carbamoyl)-3-ethyl-6-oxodecahydropyrrolo[1,2-a][1,5]diazocin-5-yl)carbamoyl)benzo[b]thiophen-5-yl)difluoromethyl)phosphonic acid] | < 0.25 µM | > 1 µM | 
9 | NC(=O)CC[C@H](NC(=O)[C@@H]1CC[C@@H]2CCN(C(=O)CCCCCC#Cc3cccc4c3CN(C3CCC(=O)NC3=O)C4=O)C[C@H](NC(=O)c3cc4cc(C(F)(F)P(=O)(O)O)ccc4s3)C(=O)N21)c1nc(-c2ccccc2)cs1 (stereo partly drawn) [Cpd. No. 4, ((2-(((5S,8S,10aR)-8-(((S)-4-amino-4-oxo-1-(4-phenylthiazol-2-yl)butyl)carbamoyl)-3-(8-(2-(2,6-dioxopiperidin-3-yl)-1-oxoisoindolin-4-yl)oct-7-ynoyl)-6-oxodecahydropyrrolo[1,2-a][1,5]diazocin-5-yl)carbamoyl)benzo[b]thiophen-5-yl)difluoromethyl)phosphonic acid] | 0.2 µM |  | 0.14 µM
